In ChEMBL document CHEMBL1121593, “Synthesis of 2,4-disubstituted 6-methoxy-8-aminoquinoline analogues as potential antiparasitics” (J Med Chem, 1980):

Key:
Plasmodium cynomolgi = assay: Radical curative activity in presence of chloroquine against Plasmodium cynomolgi infected Rhesus monkey at 1.3 mg/kg; format: functional
Cricetinae gen. sp. [1] = assay: (§1) G index is the relative activity to that of glucantime was measured on Leishmania donovani in hamsters.; format: functional, hamster
Mus musculus [2] = assay: (§2) Mean survival time which expresses the antimalarial activity of compound was measured against Plasmodium berghei in mice (Mus musculus) at 160 mg/kg dose; format: functional
Mus musculus [3] = assay: (§3) Mean survival time which expresses the antimalarial activity of compound was measured against Plasmodium berghei in mice (Mus musculus) at 640 mg/kg dose; format: functional
Mus musculus [4] = assay: Mean survival time which expresses the antimalarial activity of compound was measured against Plasmodium berghei in mice (Mus musculus) at 40 mg/kg dose; format: functional
Mus musculus [5] = assay: Mean survival time which expresses the antimalarial activity of compound was measured against Plasmodium berghei in mice (Mus musculus) a 160 mg/kg dose; format: functional
Mus musculus [6] = assay: Mean survival time which expresses the antimalarial activity of compound was measured against Plasmodium berghei in mice (Mus musculus) at 20 mg/kg dose; format: functional
Mus musculus [7] = assay: Mean survival time which expresses the antimalarial activity of compound was measured against Plasmodium berghei in mice (Mus musculus) at 80 mg/kg dose; format: functional
Mus musculus [8] = assay: (§4) Mean survival time which expresses the antimalarial activity of compound was measured against Plasmodium berghei in mice (Mus musculus) at 320 mg/kg dose; format: functional
Mus musculus [9] = assay: as §2; format: ADME, organism-based; set-up: dose 160 mg/kg; conditions: in vivo
Mus musculus [10] = assay: as §3; format: ADME, organism-based; set-up: dose 640 mg/kg; conditions: in vivo
Cricetinae gen. sp. [11] = assay: as §1; format: functional, Cricetulus griseus
Mus musculus [12] = assay: as §4; format: ADME, organism-based; set-up: dose 320 mg/kg; conditions: in vivo
Mus musculus [13] = assay: Mean survival time which expresses the antimalarial activity of compound was measured against Plasmodium berghei in mice (Mus musculus) at […] mg/kg dose; format: functional

| Compound | Relative activity (Cricetinae gen. sp. [1]) | Delta MST (Mus musculus [2]) | Delta MST (Mus musculus [3]) | Delta MST (Mus musculus [4]) | Delta MST (Mus musculus [6]) | also measured |
| --- | --- | --- | --- | --- | --- | --- |
| CCc1cc(C)c2cc(OC)cc(NC(C)CCCN)c2n1 (centres undefined) | 8.99 |  |  |  |  | Cured (Plasmodium cynomolgi): 90% |
| CCc1cc(C)nc2c(NCCCCCCN(CC)CC)cc(OC)cc12 | 29.2 | 2.7 days | 4.9 days | 1.3 days |  |  |
| C=Cc1cc(C)c2cc(OC)cc(NC(C)CCCN)c2n1 (centres undefined) |  |  | 6.2 days | 0 days | 0 days | Delta MST (Mus musculus [5]): 0.4 days; Delta MST (Mus musculus [7]): 0.6 days; Delta MST (Mus musculus [8]): 2.2 days |
| CCc1cc(C)nc2c(NC(C)CCCN)cc(OC)cc12 (centres undefined) |  | 5.1 days | 10.3 days | 2.3 days | 1.7 days | Delta MST (Mus musculus [7]): 3.7 days; Delta MST (Mus musculus [8]): 7.7 days |
| CCc1cc(C)c2cc(OC)cc(NCCCCCCN(CC)CC)c2n1 | 130 | 0.3 days | 0.7 days | 0.3 days |  |  |
| CCN(CC)CCCCCCNc1cc(OC)cc2c(C)cc(CCBr)nc12 |  | 0 days |  | 0.3 days |  | Deaths (Mus musculus [9]): 5; Deaths (Mus musculus [10]): 5; Relative activity (Cricetinae gen. sp. [11]): 2.6 |
| COc1cc(NC(C)CCCN)c2ncccc2c1 (centres undefined) [PRIMAQUINE] | 2.1 |  |  | 5 days | 4 days | Deaths (Mus musculus [9]): 2; Deaths (Mus musculus [12]): 5; Delta MST (Mus musculus [13]): 9.4 days; Deaths (Mus musculus [10]): 5 |
